Assay results from patent publication US9241976B2, “Use of HDL-related molecules to treat and prevent proinflammatory conditions” (THE REGENTS OF THE UNIVERSITY OF CALIFORNIA, priority 2011, dated 2016).

Assays:
Akt = test: Insulin-stimulated phosphorylation of Akt in OV2008 cells, Western blot; assay type: cell-based, human; settings: 10 μg/ml, insulin 200 nM
Procedure: (§1) FIGS. 10A-10B. Effect of L-4F on the insulin-stimulated activation of downstream signaling molecules in OV2008 cells. After an overnight starvation, OV2008 cells were treated with L-4F (10 μg/ml) for 1 h, and insulin was added at a final concentration of 200 nM. Cell lysates were collected at various time points and subjected to Western blot analysis. FIG. 10A, L-4F inhibits insulin-stimulated phosphorylation of p70s6 kinase and subsequent HIF-1α expression in OV2008 cells. FIG. 10B, effect of L-4F on insulinstimulated phosphorylation of ERK1/2 and Akt in OV2008 cells.
(§2) Western blot analyses were performed as described previously (Gao et al., 2011). In brief, cell lysates were collected in a lysis buffer containing 0.1 MNaCl, 5 mM EDTA, 50 μM sodium orthovanadate, 1% Triton X-100, and protease inhibitor tablet (Roche Diagnostics, Indianapolis, Ind.) in 50 mM Tris buffer, pH 7.5, loaded onto 4 to 12% Bis-Tris gel (Invitrogen), transferred to polyvinylidene difluoride membrane, and incubated with the appropriate antibodies. […]

HIF-1α mRNA = test: HIF-1α mRNA, real-time RT-PCR; assay type: cell-based, human
Procedure: Total RNA was extracted from cells by using a PureLink RNA Mini Kit (Invitrogen). The quantity and quality of RNA were assessed by using a SmartSpec 3000 Spectrophotometer (Bio-Rad Laboratories, Hercules, Calif.). cDNA was synthesized by using the High Capacity cDNA Reverse Transcription Kit (Applied Biosystems, Foster City, Calif.) according to the manufacturer's instructions. PCRs were performed by using the CFX96 realtime PCR system (Applied Biosystems). The cycling conditions were as follows: 3 min at 95° C. followed by 40 cycles of 95° C., 10 s; 60° C., 10 s; 72° C., 30 s followed by a final extension at 72° C. for 10 min. Each 25-μl reaction contained 0.4 μg of cDNA, 12.5 μl of SYBR Green qPCR SuperMix (Bio-Rad Laboratories), and 250 nM forward and reverse primers in nuclease-free water. […]

p70s6 kinase = test: Insulin-stimulated phosphorylation of S6 kinase in OV2008 cells, Western blot; assay type: cell-based, human; settings: 10 μg/ml, insulin 200 nM
Procedure: as §1, §2

HIF-1α [1] = test: Immunofluorescence staining of nuclear HIF-1α in OV2008 cells; assay type: cell-based, human
Procedure: Immunofluorescence staining was performed as described previously (Lee et al., 2006). In brief, OV2008 cells were plated onto a glass slip (Thermo Fisher Scientific) in 24-well plates at 4×10^4 cells per well and grown in complete medium overnight. After starvation overnight, cells were subjected to L-4F treatment in the presence or absence of stimulators. Then, cells were fixed in 4% neutral buffered formaldehyde for 25 min at room temperature, permeabilized with 0.5% Triton X-100 in PBS for 10 min, and blocked with 10% normal goat serum, 1% bovine serum albumin, and 0.3 M glycine prepared in PBS for 1 h. Cells were incubated with mouse anti-HIF-1α (1:200) overnight at 4° C. and incubated with Alexa Fluor 568 goat anti-mouse IgG (Invitrogen) for 1 h. Finally, cells were covered with VectaMount solution containing DAPI (Vector Laboratories, Burlingame, Calif.), and images were captured with a fluorescence microscope (Olympus IX70).

HIF-1α [2] = test: HIF-1α protein stability with cycloheximide in OV2008 cells; assay type: cell-based, human; settings: insulin 200 nM, CHX 20 μg/ml, L-4F 10 μg/ml
Procedure: FIGS. 11A-11B. Effect of L-4F on HIF-1α protein stability in OV2008 cells. FIG. 11A, left, pretreatment of L-4F promotes HIF-1α degradation in OV2008 cells. After an overnight starvation, OV2008 cells were treated with insulin (200 nM) for 3 h, L-4F (10 μg/ml) for 1 h, and CHX (20 μg/ml) for various durations. Cell lysates were collected and subjected to Western blot analysis. […] Right, L-4F treatment promotes HIF-1α degradation in OV2008 cells. After an overnight starvation, OV2008 cells were treated with insulin (200 nM) for 3 h and then treated with L-4F (10 μg/ml) and CHX (20 μg/ml) at the same time. Cell lysates were collected at various time points and subjected to Western blot analysis. […] FIG. 11B, effect of pretreatment of L-4F on proteasome-mediated degradation of HIF-1α in insulin-treated OV2008 cells. After an overnight starvation, OV2008 cells were treated with MG-132 (10 μM) for 3 h, L-4F (10 μg/ml) for 1 h, and insulin (200 nM) for an additional 4 h. Cell lysates were collected and subjected to Western blot analysis.
Western blot analyses were performed as described previously (Gao et al., 2011). […]

IL-6 = test: Plasma IL-6 ELISA; assay type: in vivo, mouse; settings: lung tumor mice; 10 mg/kg/d subcutaneously for 3 weeks; vs control group
Procedure: Interleukin (IL)-6 concentrations were measured in plasma by a competition ELISA according to the manufacture's protocol (Invitrogen).

[3] = test system: HDL anti-inflammatory properties; settings: 0.43 mg/kg daily, intravenous infusion 7 days or subcutaneously 28 days, patients with coronary heart disease (Watson and colleagues); cited from earlier work

Substance: Ac-DWFKAFYDKVAEKFKEAF-NH2 [L-4F, Ac-D-W-F-K-A-F-Y-D-K-V-A-E-K-F-K-E-A-F-NH2]
- insulin-stimulated phosphorylation of Akt (Akt): no effect on the phosphorylation of Akt, except at 0.5 h
- basal level of HIF-1α mRNA (HIF-1α mRNA): no effect
- insulin-stimulated phosphorylation of S6 kinase (p70s6 kinase): prevented phosphorylation
- nuclear expression of HIF-1α, post-treatment (HIF-1α [1]; OV2008 cells stimulated first with CoCl2 or insulin, 10 μg/ml): decreased nuclear expression
- CoCl2- and insulin-induced accumulation of HIF-1α in nuclei (HIF-1α [1]; OV2008 cells, pretreatment): dramatically reversed
- degradation of HIF-1α protein (HIF-1α [2]): accelerated the degradation
- IL-6 levels in plasma (IL-6): significantly decreased
- HDL anti-inflammatory properties [3]: did not achieve any improvement
